Settings: polymer system of polydimethylsiloxane vinyl terminated at various viscosity and platinum-mono, di, tri and/or tetramethyldisiloxane complex
Source text: These components may be combined in different ratios to make the polymer. […] The amount of vinyl siloxane cross-linker may determine the rate of the drug release and diffusivity of the polymer to the drug.

release profile: acceptable
SMILES: CC(=O)O[C@H]1C(=O)[C@@]2(C)[C@H]([C@H](OC(=O)c3ccccc3)[C@]3(O)C[C@H](OC(=O)[C@H](O)[C@@H](NC(=O)c4ccccc4)c4ccccc4)C(C)=C1C3(C)C)[C@]1(OC(C)=O)CO[C@@H]1C[C@@H]2O [paclitaxel]

Source: patent publication US9533128B2, “Devices for maintaining patency of surgically created channels in tissue” (Broncus Medical Inc., priority 2003, dated 2017)
